This note sets out measurements from EP3858438A1, “3,4-DIHYDRO-2H-SPIRO[ISOQUINOLINE-1,4'-PIPERIDIN]AMIDE DERIVATIVES HAVING MULTIMODAL ACTIVITY AGAINST PAIN” (ESTEVE PHARMACEUTICALS, S.A., priority 2020, dated 2021).

Where a name gives a salt, the structure may show the parent alone. Bounds are passed on as bounds.

The target in assay [1] is human α2δ-1 subunit of Cav2.2 calcium channel (Homo sapiens, UniProt P54289). Nature of the assay: Binding assay to human α2δ-1 subunit of Cav2.2 calcium channel ([3H]-Gabapentin). Particulars: binding expressed as Ki; [3H]-Gabapentin 15 nM, human α2δ-1 enriched membranes. As for the experimental part: Binding assay to human α2δ-1 subunit of Cav2.2 calcium channel.
Human α2δ-1 enriched membranes (2.5 µg) were incubated with 15 nM of radiolabeled [3H]-Gabapentin in assay buffer containing Hepes-KOH 10 mM, pH 7.4.
NSB (non specific binding) was measured by adding 10 µM pregabalin. The binding of the test compound was measured at either one concentration (% inhibition at 1 or 10 µM) or five different concentrations to determine affinity values (Ki). After 60 min incubation at 27 °C, binding reaction was terminated by filtering through Multiscreen GF/C (Millipore) presoaked in 0.5 % polyethyleneimine in Vacuum Manifold Station, followed by 3 washes with ice-cold filtration buffer containing 50 mM Tris-HCl, pH 7.4.
Filter plates were dried at 60 °C for 1 h and 30 µl of scintillation cocktail were added to each well before radioactivity reading.
Readings were performed in a Trilux 1450 Microbeta radioactive counter (Perkin Elmer).

In assay [2] the target is T1, human µ-opioid receptor (Homo sapiens, UniProt P35372).
T1 construct: expressed in transfected cells; host or cells: CHO-K1
Nature of the assay: Binding assay to human µ-opioid receptor ([3H]-DAMGO, transfected CHO-K1 cell membranes). The following applies: binding expressed as Ki, [3H]-DAMGO 1 nM. How it is done:
Binding assay to human µ-opioid receptor
Transfected CHO-K1 cell membranes (20 µg) were incubated with [^3H]-DAMGO (1 nM) in assay buffer containing Tris-HCl 50 mM, MgCl2 5 mM at pH 7.4.
NBS (non-specific binding) was measured by adding 10 µM naloxone. The binding of the test compound was measured at either one concentration (% inhibition at 1 or 10 µM) or five different concentrations to determine affinity values (Ki). Plates were incubated at 27 °C for 60 min. After the incubation period, the reaction mixture was then transferred to MultiScreen HTS, FC plates (Millipore), filtered and plates were washed 3 times with ice-cold 10 mM Tris-HCl (pH 7.4).
Filters were dried and counted at approximately 40% efficiency in a MicroBeta scintillation counter (Perkin-Elmer) using EcoScint liquid scintillation cocktail.

The term Ki denotes the dissociation constant of the complex between target and ligand, obtained from inhibition or displacement.

T1 sequence (P35372 whole entry): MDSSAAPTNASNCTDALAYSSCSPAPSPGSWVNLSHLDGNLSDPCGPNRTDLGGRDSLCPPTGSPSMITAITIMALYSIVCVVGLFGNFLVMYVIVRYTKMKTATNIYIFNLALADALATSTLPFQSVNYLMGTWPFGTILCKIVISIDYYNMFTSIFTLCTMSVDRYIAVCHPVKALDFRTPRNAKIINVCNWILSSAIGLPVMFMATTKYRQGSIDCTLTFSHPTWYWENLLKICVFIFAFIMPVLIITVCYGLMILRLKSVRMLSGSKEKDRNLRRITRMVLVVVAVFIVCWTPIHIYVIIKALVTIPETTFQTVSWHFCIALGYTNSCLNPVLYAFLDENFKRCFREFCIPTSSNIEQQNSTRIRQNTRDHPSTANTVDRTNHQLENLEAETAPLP
Sequence of human α2δ-1 subunit of Cav2.2 calcium channel (P54289 25-1103): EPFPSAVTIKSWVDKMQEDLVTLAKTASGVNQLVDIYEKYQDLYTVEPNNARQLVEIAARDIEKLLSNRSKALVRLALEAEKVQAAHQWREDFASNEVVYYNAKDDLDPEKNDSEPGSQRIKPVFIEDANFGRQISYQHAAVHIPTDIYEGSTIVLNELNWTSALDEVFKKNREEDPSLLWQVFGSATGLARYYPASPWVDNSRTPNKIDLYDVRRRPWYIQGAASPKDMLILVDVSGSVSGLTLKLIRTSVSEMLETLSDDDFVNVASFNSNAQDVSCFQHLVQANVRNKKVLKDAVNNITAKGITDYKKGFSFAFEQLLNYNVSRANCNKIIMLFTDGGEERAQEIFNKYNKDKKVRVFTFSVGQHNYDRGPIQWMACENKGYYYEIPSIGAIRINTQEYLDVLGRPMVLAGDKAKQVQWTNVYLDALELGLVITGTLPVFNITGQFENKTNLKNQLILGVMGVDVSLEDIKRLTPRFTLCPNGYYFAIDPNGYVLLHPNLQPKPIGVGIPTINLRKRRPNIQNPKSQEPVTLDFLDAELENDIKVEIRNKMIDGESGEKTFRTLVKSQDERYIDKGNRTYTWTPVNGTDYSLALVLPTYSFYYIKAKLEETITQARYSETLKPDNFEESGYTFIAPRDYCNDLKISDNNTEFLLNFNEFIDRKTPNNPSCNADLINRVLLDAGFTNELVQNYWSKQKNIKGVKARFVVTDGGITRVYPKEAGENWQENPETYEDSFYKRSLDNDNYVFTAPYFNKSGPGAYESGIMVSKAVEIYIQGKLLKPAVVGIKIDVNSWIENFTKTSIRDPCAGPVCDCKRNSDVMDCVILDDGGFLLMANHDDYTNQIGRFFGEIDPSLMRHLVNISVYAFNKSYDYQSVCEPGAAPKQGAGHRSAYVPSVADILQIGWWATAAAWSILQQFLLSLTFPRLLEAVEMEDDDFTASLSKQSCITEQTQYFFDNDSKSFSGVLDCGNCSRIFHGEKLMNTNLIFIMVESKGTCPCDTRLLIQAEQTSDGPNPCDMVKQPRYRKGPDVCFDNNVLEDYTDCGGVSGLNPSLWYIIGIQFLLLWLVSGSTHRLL

For `CC[C@@H](c1cccc(Cl)c1)[C@@H](CN)C(=O)N1CCC2(CC1)c1ccccc1CCN2C` [Example 4, (2S,3R)-2-(aminomethyl)-3-(3-chlorophenyl)-1-(2-methyl-3,4-dihydro-2H-spiro[isoquinoline-1,4'-piperidin]-1'-yl)pentan-1-one], the inhibition constant (Ki) in assay [1] is below 500 nM; in assay [2] it was below 100 nM.
Taken in the same sequence, the figures for `CC[C@@H](c1ccccc1)[C@@H](CN)C(=O)N1CCC2(CC1)c1ccccc1CCN2C` [Example 1] were below 500 nM and below 100 nM.
In the case of `CC[C@@H](c1cccc(Cl)c1)[C@@H](CNC)C(=O)N1CCC2(CC1)c1ccccc1CCN2C` [Example 3, (2S,3R)-3-(3-chlorophenyl)-1-(2-methyl-3,4-dihydro-2H-spiro[isoquinoline-1,4'-piperidin]-1'-yl)-2-((methylamino)methyl)pentan-1-one dihydrochloride], the Ki in assay [1] is below 500 nM; in assay [2], 100 to 500 nM.
As to `CNC[C@@H](C(=O)N1CCC2(CC1)c1ccccc1CCN2C)[C@@H](C)c1ccccc1` [Example 2, (2S,3R)-1-(2-methyl-3,4-dihydro-2H-spiro[isoquinoline-1,4'-piperidin]-1'-yl)-2-((methylamino)methyl)-3-phenylbutan-1-one], the Ki in assay [1] was below 500 nM; in assay [2] it was 100 to 500 nM.
